“Also recorded” adds a separate entry of the source. Like-named read-outs stand apart in the source and are kept apart here.
What was measured:
SOCS-1 gene expression = assay: Semi-quantitative RT-PCR of SOCS-1 expression in MM cell lines; format: cell-based, human; details: 1 μM for 96 hr
Procedure: (§1) For gene expression studies, U266 and XG1 cells were incubated in complete culture medium with a final concentration of 1.0 μM 5-azacytidine (Sigma). After 4 days, drug-treated and untreated cells were harvested and subjected to RNA extraction. In order to assess the sensitivity to AG490, cell lines K562, U266 and XG1 were incubated with or without a final concentration of 50 μM AG490 for 4 days prior to analysis. For STAT3 phosphorylation analysis, cell lines U266 and XG1 were initially starved for 16 hr in culture medium supplemented with only 1% FCS and no cytokine. Cells were then washed in cold PBS and resuspended in their appropriate complete medium with or without 50 μM AG490 and samples were harvested for protein analysis after 1 hr and 24 hr.
Total RNA was isolated using a commercially available kit (Qiagen) according to the manufacturer's instructions. Approximately 3 μg RNA per sample were reverse transcribed with SuperScript™ reverse transcriptase (Invitrogen). For PCR, 1 μl of the cDNA preparation was amplified using the following SOCS-1 primers: […]
Reactions were hot-started at 95° C. for 5 min and held at 80° C. before addition of 1.25 U of Taq polymerase (Invitrogen Corp.). […]

[1] = system: patients with AML and myelodysplastic syndrome; details: cited from earlier work
STAT3 [2] = assay: Western blot analysis of STAT3 tyrosine phosphorylation in HCC cell lines treated with AG490; format: cell-based, human; details: 25 μM AG490 for 3 hr or 24 hr
Procedure: Cells at approximately 70% confluence were harvested and lysed on ice in a buffer containing 20 mM Tris (pH 8.0), 1% NONIDET P-40 detergent, 0.1% SDS, 150 mM NaCl, 50 mM NaF, 1 mM Na3VO4, 10 μg/ml leupeptin, 10 μg/ml aprotinin, 1 μg/ml pepstatin, and 1 mM phenylmethylsulfonyl fluoride. Following incubation for 30 min on ice, the lysates were cleared of debris by centrifugation at 15,000×g for 30 min. Eight hundred μg of protein lysates were incubated with 5 μg anti-JAK2 antibody (Upstate Biotechnology; Waltham Mass.) for 1 hr on ice. Thirty μl protein A+G (Oncogene Research Products; Boston Mass.) was added to the lysates and incubated for 1 hr at 4° C. with rotation.
Immune complexes were recovered by centrifugation, washed 5 times with the lysis buffer, then boiled for 5 min in SDS-PAGE sample buffer. The samples were resolved by SDS-PAGE, and electroblotted onto a nitrocellulose membrane. The blot was blocked with 5% skim milk in PBS for 1 hr at room temperature (RT), then incubated with 1 μg/ml of anti-phosphotyrosine antibody (4G10; Upstate biotechnology) over night at 4° C.
After several washes, a 1:5000 dilution of anti-mouse horseradish peroxidase-conjugated secondary antibody (Amersham Pharmacia Biotech) was added and incubated for 1 hr at RT. After several washes, the immunoreactive bands were visualized by an enhanced chemiluminescence substrate (Amersham Pharmacia Biotech) and exposed to HYPERFILM film (Amersham Pharmacia Biotech). The blot was stripped with a buffer composed of 62.5 mM Tris (pH 6.8), 2% SDS and 100 mM θ-mercaptoethanol at 50° C. for 30 min, washed, blocked with 5% milk in PBS, then re-probed with the anti-JAK2 antibody (Upstate Biotechnology).
To analyze inhibition of STAT3 by AG490, cells were treated with 25 μM AG490 for 3 hr or 24 hr. Eighty μg total protein samples from drug treated and untreated cells were separated by SDS-PAGE, and analyzed by western blot analysis. Anti-phospho-STAT3 antibody (New England Biolabs) was used to detect tyrosine phosphorylation of STAT3 according to the conditions recommended by the manufacturer. […]

[3] = system: HCC cells exhibiting methylation silenced SOCS-1 gene expression; assay: Colony formation assay with AG490; format: cell-based, human; details: 5 μM AG490 for 3 weeks
Procedure: For AG490 treatment, 1×10^4 cells were plated in 100 mm tissue culture dishes, and grown in complete medium in the absence or presence of 5 μM AG490 for 3 weeks. In some experiments, cells were treated with 25 μM AG490 for 3 hr or 24 hr.

normal liver cells = assay: Effect of AG490 on normal liver cells; format: cell-based
K562 cells = assay: Flow cytometric analysis of apoptosis (annexin V binding, PI counterstaining); format: cell-based, human; details: 50 μM AG490, 96 hr; no SOCS-1 methylation
Procedure: as §1
(§2) Apoptosis was assessed by annexin V binding and counterstaining with propidium iodide (PI) using a commercially available kit (Pharmingen) according to the manufacturer's instructions. Fluorescence analysis was performed on a BD LSR flow cytometer (Becton Dickinson).

U266 cells = assay: as above; format: cell-based, human; details: 50 μM AG490, 96 hr; SOCS-1 hypermethylated
Procedure: as §1, §2

XG1 cells = assay: as above; format: cell-based, human; details: 50 μM AG490, 96 hr; SOCS-1 hypermethylated
Procedure: as §1, §2

STAT3 [4] = assay: Western blot analysis of STAT3 phosphorylation in MM cell lines; format: cell-based, human; details: 50 μM AG490, 1 hr and 24 hr
Procedure: as §1
Cell lysis and western blot analysis for STAT3 phosphorylation were performed as described in Example 1 (see, also, Yoshikawa et al., supra, 2001).

HL60 = assay: Flow cytometric analysis of apoptosis in AML cell line; format: cell-based, human; details: 50 μM AG490, 96 hr; SOCS-1 not methylated
Procedure: (§3) HL60 cells were obtained from the American Type Culture Collection and KG1a cells from the German Collection of Microorganisms and Cell Cultures. Both cell lines were routinely cultured in IMDM (Invitrogen Corp.) with 20% FCS (Gemini Bio-Products). In order to assess the sensitivity to AG490, HL60 and KG1a cells were incubated with or without a final concentration of 50 μM AG490 (Sigma) for 96 hr prior to analysis.
(§4) The percentage of apoptotic cells was determined by annexin V-binding and counterstaining with propidium iodide (PI), and fluorescence analysis was performed as described in Example 2.

KG1a = assay: as above; format: cell-based, human; details: 50 μM AG490, 96 hr; SOCS-1 CpG island methylated
Procedure: as §3, §4

STAT1 = assay: Western blot analysis of STAT tyrosine phosphorylation in SOCS-1 methylated leukemia cells; format: cell-based, human; details: cell line with SOCS-1 methylation, following treatment with AG490
Procedure: (§5) Western blot analysis was performed as described in Example 1. Blots were stained using anti-phospho-STAT1, anti-phospho-STAT3 or anti-phospho-STAT5 antibody (New England Biolabs) to detect tyrosine phosphorylation of STAT protein. After removing the antibody, the blot was analyzed using anti-STAT1, anti-STAT3 or anti-STAT5 antibody, respectively (BD Transduction Laboratories).

STAT3 [5] = assay: as above; format: cell-based, human; details: cell line with SOCS-1 methylation, following treatment with AG490
Procedure: as §5

STAT5 = assay: as above; format: cell-based, human; details: cell line with SOCS-1 methylation, following treatment with AG490
Procedure: as §5

[6] = system: normal haematopoietic progenitor cells; details: at concentrations similar to those used in the present studies; cited from earlier work
[7] = system: B cell leukemia cells, in which JAK2 was constitutively activated; details: cited from earlier work
STAT3 [8] = details: MM cell line XG2; cited from earlier work
myeloma cells = details: cited from earlier work
leukemic Sezary cells = details: cited from earlier work
ALL = details: cited from earlier work

## Nc1ncn([C@H]2C[C@H](O)[C@@H](CO)O2)c(=O)n1 [5-aza-2′-deoxycytidine]
SOCS-1 gene expression; U266 cells
  SOCS-1 gene expression: reactivation of SOCS-1 gene expression
SOCS-1 gene expression; XG1 cells
  SOCS-1 gene expression: reactivation of SOCS-1 gene expression
[1]
  clinical efficacy: clinically effective

## N#C/C(=C/c1ccc(O)c(O)c1)C(=O)NCc1ccccc1 [AG490]
STAT3 [2]; HuH-1 cells (SOCS-1 inactivated, JAK2 activated)
  STAT3 phosphorylation: time dependent reduction in STAT3 phosphorylation
STAT3 [2]; SNU-387 cells (SOCS-1 inactivated, JAK2 activated)
  STAT3 phosphorylation: time dependent reduction in STAT3 phosphorylation
STAT3 [2]; SOCS-1 expressing SNU-182 cells
  STAT3 phosphorylation: but not in the SOCS-1 expressing SNU-182 cells
[3]
  growth suppression (number of colonies): effectively suppressed the growth
Normal liver cells
  effect on normal liver cells: no effect
K562 cells
  apoptosis induction: only a small effect
U266 cells
  apoptosis induction: induced apoptosis
XG1 cells
  apoptosis induction: induced apoptosis
STAT3 [4]; U266 cells
  STAT3 phosphorylation: inhibited STAT3 phosphorylation
STAT3 [4]; XG1 cells
  STAT3 phosphorylation: only minor effects
HL60
  apoptosis induction: no effect; also recorded: only weak induction of apoptosis
KG1a
  apoptosis induction: induced apoptosis
STAT1
  tyrosine phosphorylation of STAT1: decreased
STAT3 [5]
  tyrosine phosphorylation of STAT3: decreased
STAT5
  tyrosine phosphorylation of STAT5: no change
[6]
  growth of normal haematopoietic progenitor cells: does not suppress the growth
[7]
  growth of B cell leukemia cells: suppress growth
STAT3 [8]
  STAT3 phosphorylation: inhibition of STAT3 phosphorylation
Myeloma cells
  apoptosis induction: induces apoptosis
Leukemic Sezary cells
  apoptosis induction: induces apoptosis
ALL
  effectiveness in the treatment of ALL: effectiveness

Source: patent publication US7749709B2, “SOCS-1 gene methylation in cancer” (The Johns Hopkins University School of Medicine, priority 2001, dated 2010)
